Like-named read-outs stand apart in the source and are kept apart here.
Assays:
Format in all cases: cell-based
alpha2B receptor = biological target: T1, alpha2B receptor (Homo sapiens, UniProt P18089); assay: RSAT assay, alpha 2B; details: for (rel. efficacy) Alpha 2B: ratio of maximal effect to standard full agonist brimonidine (UK14304)
T1 construct: expressed in transfected cells; host or cells: NIH-3T3
T1 sequence (P18089 1-450): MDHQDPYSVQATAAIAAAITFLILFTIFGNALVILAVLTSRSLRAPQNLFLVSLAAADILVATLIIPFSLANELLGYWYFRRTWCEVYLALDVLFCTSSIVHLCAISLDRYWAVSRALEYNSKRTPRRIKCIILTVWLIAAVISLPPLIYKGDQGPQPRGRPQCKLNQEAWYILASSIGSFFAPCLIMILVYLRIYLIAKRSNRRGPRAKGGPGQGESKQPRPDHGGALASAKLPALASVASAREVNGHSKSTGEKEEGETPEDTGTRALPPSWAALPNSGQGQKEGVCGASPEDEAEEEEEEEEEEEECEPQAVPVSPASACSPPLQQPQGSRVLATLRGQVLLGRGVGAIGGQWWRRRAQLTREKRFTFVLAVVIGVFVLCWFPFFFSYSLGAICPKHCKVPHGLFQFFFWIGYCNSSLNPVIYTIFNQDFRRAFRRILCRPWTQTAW
Procedure: (§1) Selected presently described compounds were synthesized and tested for alpha adrenergic activity using the Receptor Selection and Amplification Technology (RSAT) assay. Cells expressing each of the alpha-2-adrenergic receptors alone were incubated with various compounds and a receptor-mediated growth response was measured. The compound's activity is expressed as its relative efficacy compared to a standard full agonist.
(§2) The RSAT assay measures a receptor-mediated loss of contact inhibition that results in selective proliferation of receptor-containing cells in a mixed population of confluent cells. The increase in cell number is assessed with an appropriate transfected marker gene such as β-galactosidase, the activity of which can be easily measured in a 96-well format. Receptors that activate the G protein, Gq, elicit this response. Alpha2 receptors, which normally couple to Gi, activate the RSAT response when coexpressed with a hybrid Gq protein that has a Gi receptor recognition domain, called Gq/i5.
(§3) NIH-3T3 cells are plated at a density of 2×10^6 cells in 15 cm dishes and maintained in Dulbecco's modified Eagle's medium supplemented with 10% calf serum. One day later, cells are cotransfected by calcium phosphate precipitation with mammalian expression plasmids encoding p-SV-β-galactosidase (5-10 μg), receptor (1-2 μg) and G protein (1-2 μg). 40 μg salmon sperm DNA may also be included in the transfection mixture. Fresh media is added on the following day and 1-2 days later, cells are harvested and frozen in 50 assay aliquots. Cells are thawed and […] added to […] aliquots of various concentrations of drugs in triplicate in 96-well dishes. Incubations continue 72-96 hr at 37° C. After washing with phosphatebuffered saline, β-galactosidase enzyme activity is determined by adding 200 μl of the chromogenic substrate (consisting of 3.5 mM o-nitrophenyl-β-D-galactopyranoside and 0.5% nonidet P-40 in phosphate buffered saline), incubating overnight at 30° C. and measuring optical density at 420 nm. The absorbance is a measure of enzyme activity, which depends on cell number and reflects a receptor-mediated cell proliferation. The EC50 and maximal effect of each drug at each alpha2 receptor is determined. The efficacy or intrinsic activity is calculated as a ratio of the maximal effect of the drug to the maximal effect of a standard full agonist for each receptor subtype. Brimonidine, also called UK14304, is used as the standard agonist for the alpha2A, alpha2B, and alpha2C receptors.
(§4) The compounds activity is expressed as its relative efficacy compared to a standard full agonist.

alpha2C receptor = biological target: T2, alpha2C receptor (Homo sapiens, UniProt P18825); assay: RSAT assay, alpha 2C; details: for (rel. efficacy) Alpha 2C: ratio of maximal effect to standard full agonist brimonidine (UK14304)
T2 construct: expressed in transfected cells; host or cells: NIH-3T3
T2 sequence (P18825 1-462): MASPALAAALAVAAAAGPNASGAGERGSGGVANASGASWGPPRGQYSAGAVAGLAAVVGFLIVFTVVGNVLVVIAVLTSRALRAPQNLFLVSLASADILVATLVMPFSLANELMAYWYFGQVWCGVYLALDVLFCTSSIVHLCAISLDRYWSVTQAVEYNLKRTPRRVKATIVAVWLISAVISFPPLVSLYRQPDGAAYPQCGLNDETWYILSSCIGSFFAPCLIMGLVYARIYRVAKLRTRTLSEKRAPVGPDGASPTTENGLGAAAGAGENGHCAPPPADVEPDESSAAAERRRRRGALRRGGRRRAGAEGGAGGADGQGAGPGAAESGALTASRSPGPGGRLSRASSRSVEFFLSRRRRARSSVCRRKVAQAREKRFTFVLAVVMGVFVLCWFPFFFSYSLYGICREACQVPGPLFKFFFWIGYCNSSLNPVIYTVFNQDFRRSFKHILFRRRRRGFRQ
Procedure: as §1, §2, §3, §4

alpha2A receptor = biological target: T3, alpha2A receptor (Homo sapiens, UniProt P08913); assay: RSAT assay, alpha 2A
T3 sequence (P08913 1-465): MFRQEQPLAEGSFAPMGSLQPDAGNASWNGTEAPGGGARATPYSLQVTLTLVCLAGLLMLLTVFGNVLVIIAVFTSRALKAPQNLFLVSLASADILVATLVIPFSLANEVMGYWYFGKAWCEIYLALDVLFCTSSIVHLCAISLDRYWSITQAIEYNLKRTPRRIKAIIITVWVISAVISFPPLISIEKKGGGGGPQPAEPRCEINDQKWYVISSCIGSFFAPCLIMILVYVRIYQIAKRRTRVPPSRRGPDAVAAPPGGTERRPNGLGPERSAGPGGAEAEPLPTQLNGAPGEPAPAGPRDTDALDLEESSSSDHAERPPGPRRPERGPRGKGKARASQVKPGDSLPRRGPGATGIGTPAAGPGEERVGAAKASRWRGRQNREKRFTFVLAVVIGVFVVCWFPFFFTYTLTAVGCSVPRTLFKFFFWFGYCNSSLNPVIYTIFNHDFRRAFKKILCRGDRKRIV
Procedure: as §1, §2, §3, §4

[1] = RSAT, NIH-3T3 cells, NA = not active, read-out: EC50 (nM) Alpha 2B
[2] = RSAT, NIH-3T3 cells, NA = not active, read-out: EC50 (nM) Alpha 2C

`Brc1cccc(CNC2=NCCO2)c1` was tested, and the EC50 (alpha2B receptor) was 12 nM, the “(rel. efficacy) Alpha 2B” value (alpha2B receptor; RSAT) was 1.0 and the EC50 (alpha2C receptor) was 83 nM. The “(rel. efficacy) Alpha 2C” value (alpha2C receptor; RSAT) was 0.59.

`COc1c(Cl)cccc1CNC1=NCCS1` was tested, and the EC50 (alpha2A receptor) was 701 nM, the “(rel. efficacy) Alpha 2A” value (alpha2A receptor; RSAT, ratio of maximal effect to standard full agonist brimonidine (UK14304)) was 0.38 and the EC50 (alpha2B receptor) was 22 nM. The “(rel. efficacy) Alpha 2B” value (alpha2B receptor; RSAT) was 1.08, the EC50 (alpha2C receptor) was 99 nM and the “(rel. efficacy) Alpha 2C” value (alpha2C receptor; RSAT) was 0.73.

`Cc1cccc(CNC2=NCCO2)c1C` was tested, and the EC50 (alpha2B receptor) was 2 nM, the “(rel. efficacy) Alpha 2B” value (alpha2B receptor; RSAT) was 1.09 and the EC50 (alpha2C receptor) was 11 nM. The “(rel. efficacy) Alpha 2C” value (alpha2C receptor; RSAT) was 0.83.

For `Cc1cc(Cl)cc(CNC2=NCCS2)c1F`, the EC50 (alpha2B receptor) was 351 nM, the “(rel. efficacy) Alpha 2B” value (alpha2B receptor; RSAT) was 0.96 and the EC50 (alpha2C receptor) was 1250 nM. For the same compound, the “(rel. efficacy) Alpha 2C” value (alpha2C receptor; RSAT) was 0.51.

With `Brc1cccc(CNC2=NCCS2)c1` the EC50 (alpha2B receptor) was 75 nM, the “(rel. efficacy) Alpha 2B” value (alpha2B receptor; RSAT) was 0.84 and the EC50 (alpha2C receptor) was 459 nM. The “(rel. efficacy) Alpha 2C” value (alpha2C receptor; RSAT) was 0.5.

With `Fc1c(Cl)cccc1CNC1=NCCS1` the EC50 (alpha2B receptor) was 107 nM, the “(rel. efficacy) Alpha 2B” value (alpha2B receptor; RSAT) was 1.01 and the EC50 (alpha2C receptor) was 535 nM. The “(rel. efficacy) Alpha 2C” value (alpha2C receptor; RSAT) was 0.7.

For `Fc1c(Cl)cccc1CNC1=NCCO1` [drawing 19], the EC50 (alpha2B receptor) was 10 nM, the “(rel. efficacy) Alpha 2B” value (alpha2B receptor; RSAT) was 1.09 and the EC50 (alpha2C receptor) was 22 nM. The “(rel. efficacy) Alpha 2C” value (alpha2C receptor; RSAT) was 0.85.

In the case of `Clc1ccc(Br)cc1CNC1=NCCS1`, the EC50 (alpha2B receptor; [1]) is reported as 296 nM, the “(rel. efficacy) Alpha 2B” value (alpha2B receptor; RSAT) is reported as 0.9 and the EC50 (alpha2C receptor; [2]) is reported as 1330 nM. The “(rel. efficacy) Alpha 2C” value (alpha2C receptor; RSAT) was 0.56.

For `FC(F)(F)c1ccccc1CNC1=NCCO1`, the EC50 (alpha2B receptor) was 31 nM, the “(rel. efficacy) Alpha 2B” value (alpha2B receptor; RSAT) was 0.97 and the EC50 (alpha2C receptor) was 21 nM. For the same compound, the “(rel. efficacy) Alpha 2C” value (alpha2C receptor; RSAT) was 0.8.

In the case of `Clc1cccc(CNC2=NCCO2)c1Cl`, the EC50 (alpha2B receptor) is reported as 5 nM, the “(rel. efficacy) Alpha 2B” value (alpha2B receptor; RSAT) is reported as 1.05 and the EC50 (alpha2C receptor) is reported as 92 nM. The “(rel. efficacy) Alpha 2C” value (alpha2C receptor; RSAT) was 0.91.

With `COc1ccccc1CNC1=NCCS1` [drawing 16] the EC50 (alpha2C receptor) was 1550 nM and the “(rel. efficacy) Alpha 2C” value (alpha2C receptor; RSAT) was 0.74.

`FC(F)(F)c1cccc(CNC2=NCCO2)c1Cl` was tested, and the EC50 (alpha2B receptor) was 5 nM, the “(rel. efficacy) Alpha 2B” value (alpha2B receptor; RSAT) was 0.96 and the EC50 (alpha2C receptor; [2]) was 189 nM. For the same compound, the “(rel. efficacy) Alpha 2C” value (alpha2C receptor; RSAT) was 0.81.

`COc1ccccc1CNC1=NCCO1` [drawing 17] was tested, and the EC50 (alpha2B receptor) was 13.4 nM, the “(rel. efficacy) Alpha 2B” value (alpha2B receptor; RSAT) was 1.09 and the EC50 (alpha2C receptor; [2]) was 181 nM. The “(rel. efficacy) Alpha 2C” value (alpha2C receptor; RSAT) was 0.53.

`Fc1c(CNC2=NCCS2)cccc1C(F)(F)F` was tested, and the EC50 (alpha2B receptor) was 184 nM, the “(rel. efficacy) Alpha 2B” value (alpha2B receptor; RSAT) was 0.99 and the EC50 (alpha2C receptor) was 1430 nM. For the same compound, the “(rel. efficacy) Alpha 2C” value (alpha2C receptor; RSAT) was 0.73.

With `Clc1ccccc1CNC1=NCCS1` the EC50 (alpha2B receptor) was 50 nM, the “(rel. efficacy) Alpha 2B” value (alpha2B receptor; RSAT) was 0.85 and the EC50 (alpha2C receptor; [2]) was 699 nM. For the same compound, the “(rel. efficacy) Alpha 2C” value (alpha2C receptor; RSAT) was 0.66.

With `FC(F)Oc1ccccc1CNC1=NCCO1` the EC50 (alpha2B receptor) was 34 nM, the “(rel. efficacy) Alpha 2B” value (alpha2B receptor; RSAT) was 0.83 and the EC50 (alpha2C receptor) was 13 nM. For the same compound, the “(rel. efficacy) Alpha 2C” value (alpha2C receptor; RSAT) was 0.74.

With `Cc1cc(Br)c(F)c(CNC2=NCCS2)c1` the EC50 (alpha2B receptor; [1]) was 168 nM, the “(rel. efficacy) Alpha 2B” value (alpha2B receptor; RSAT) was 1.04 and the EC50 (alpha2C receptor; [2]) was 803 nM. The “(rel. efficacy) Alpha 2C” value (alpha2C receptor; RSAT) was 0.62.

With `Clc1cccc(CNC2=NCCS2)c1Cl` the EC50 (alpha2B receptor) was 28 nM, the “(rel. efficacy) Alpha 2B” value (alpha2B receptor; RSAT) was 0.94 and the EC50 (alpha2C receptor) was 252 nM. For the same compound, the “(rel. efficacy) Alpha 2C” value (alpha2C receptor; RSAT) was 0.68.

In the case of `Fc1ccc(Cl)c(F)c1CNC1=NCCO1`, the EC50 (alpha2B receptor) is reported as 57 nM, the “(rel. efficacy) Alpha 2B” value (alpha2B receptor; RSAT) is reported as 0.93 and the EC50 (alpha2C receptor; [2]) is reported as 356 nM. The “(rel. efficacy) Alpha 2C” value (alpha2C receptor; RSAT) was 0.52.
